From patent US7550483B2, “Amorphous salt of 4-(3-chloro-4-(cyclopropylaminocarbonyl)aminophenoxy)-7-methoxy-6-quinolinecarboxamide and process for preparing the same” (Eisai R&D Management Co., Ltd., priority 2005, dated 2009)

Experiments:
c-Kit kinase = c-Kit kinase (Homo sapiens, UniProt P10721); details: AACR 2004 proceedings; WO2004/080462; cited from earlier work
[1] = Test for measuring dissolution rate (rotating disk method); format: physicochemical; details: 2nd fluid pH 6.8, 500 mL, 37° C., 50 rpm, 1 cm^2
Method: The dissolution rates of the following crystal and amorphous compounds were measured under the conditions described below by the rotating disk method (see, J. H. Woods et al., J. Pharm. Soc., 54, 1068 (1955)): a crystalline form of the free carboxamide obtained in Preparation Example 1, an amorphous form of the methanesulfonate of the carboxamide obtained in Example 1 and an amorphous form of the ethanesulfonate obtained in Example 2. The dissolution rates were calculated based on a range in which linearity was maintained in the relation between concentration and time at the initial stage of dissolution.
(Rotating disk method conditions)
Solvent: “2nd fluid” (pH 6.8, 500 mL) as described in Japanese Pharmacopoeia 14th Edition, General Tests (disintegration test)
Disk rotation speed: 50 rpm
Area of powder contacting with solvent on disk: 1 cm^2
Sampling amount: approx. 1 mL
Column: YMC Pack ProC18 (YMC Co., Ltd.; inner diameter 4.6 mm, column length 150 mm, particle size 5 μm)
Column temperature: 40° C.
Concentration of solution B: 20%
Detection: ultraviolet absorbance photometer (wavelength: 252 nm)
Temperature of auto sampler: 25° C.

angiogenesis = details: free-form product; WO02/32872 Example 368; cited from earlier work

c-Kit kinase, sequence (P10721 26-976): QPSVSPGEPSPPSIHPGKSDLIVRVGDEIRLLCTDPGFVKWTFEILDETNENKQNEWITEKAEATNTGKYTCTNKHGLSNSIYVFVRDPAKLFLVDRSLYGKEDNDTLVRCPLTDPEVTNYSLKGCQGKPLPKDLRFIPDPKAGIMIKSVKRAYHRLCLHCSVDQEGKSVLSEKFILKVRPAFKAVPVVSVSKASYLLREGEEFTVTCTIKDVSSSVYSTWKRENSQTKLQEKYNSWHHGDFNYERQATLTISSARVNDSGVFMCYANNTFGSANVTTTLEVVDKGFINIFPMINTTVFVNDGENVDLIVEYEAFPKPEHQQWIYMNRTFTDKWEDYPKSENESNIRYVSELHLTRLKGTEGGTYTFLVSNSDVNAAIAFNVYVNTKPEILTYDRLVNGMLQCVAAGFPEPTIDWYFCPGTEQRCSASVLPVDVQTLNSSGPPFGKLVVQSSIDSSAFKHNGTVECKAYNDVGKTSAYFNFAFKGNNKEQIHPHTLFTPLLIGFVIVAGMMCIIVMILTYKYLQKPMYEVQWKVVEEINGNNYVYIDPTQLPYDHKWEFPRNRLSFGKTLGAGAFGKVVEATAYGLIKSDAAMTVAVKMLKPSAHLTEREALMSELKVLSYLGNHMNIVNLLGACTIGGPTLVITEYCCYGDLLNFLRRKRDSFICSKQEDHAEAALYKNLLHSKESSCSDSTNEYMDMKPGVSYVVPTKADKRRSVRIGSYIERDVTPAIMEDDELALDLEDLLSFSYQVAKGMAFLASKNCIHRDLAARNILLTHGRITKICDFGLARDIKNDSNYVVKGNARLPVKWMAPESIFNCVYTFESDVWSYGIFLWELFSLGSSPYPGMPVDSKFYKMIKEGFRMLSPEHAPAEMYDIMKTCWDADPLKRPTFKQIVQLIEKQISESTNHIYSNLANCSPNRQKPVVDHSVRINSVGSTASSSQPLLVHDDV

Structure (SMILES)	inhibitory action for c-Kit kinase (c-Kit kinase)	dissolution rate [1] [μg/min/cm^2]	angiogenesis inhibition (angiogenesis)
COc1cc2nccc(Oc3ccc(NC(=O)NC4CC4)c(Cl)c3)c2cc1C(N)=O [free form, 4-(3-chloro-4-(cyclopropylaminocarbonyl)aminophenoxy)-7-methoxy-6-quinolinecarboxamide]	strong inhibitory action	1.1	excellent angiogenesis inhibition
CCS(=O)(=O)O.COc1cc2nccc(Oc3ccc(NC(=O)NC4CC4)c(Cl)c3)c2cc1C(N)=O [esylate amorphous, An amorphous form of the ethanesulfonate of 4-(3-chloro-4-(cyclopropylaminocarbonyl)aminophenoxy)-7-methoxy-6-quinolinecarboxamide]	–	25.1	–
COc1cc2nccc(Oc3ccc(NC(=O)NC4CC4)c(Cl)c3)c2cc1C(N)=O.CS(=O)(=O)O [mesylate amorphous, An amorphous form of the methanesulfonate of 4-(3-chloro-4-(cyclopropylaminocarbonyl)aminophenoxy)-7-methoxy-6-quinolinecarboxamide]	–	22.7	–
